According to patent publication US6627793B2, “Low temperature-inducible wheat WCS120 gene promoter” (Université du Québec A Montréal, priority 1998, dated 2003):

Tests used:
[1] = test system: PKC-like activity in CA nuclear extracts; test: PKC activity in nuclear extracts with the PKC-specific substrate peptide MARCKS; assay type: biochemical, wheat
Experimental: FIGS. 5. a) to c) Analysis of endogenous kinases in nuclear extracts from non-acclimated (NA) and cold-acclimated (CA) wheat plants. a) In vitro phosphorylation of nuclear proteins. Equal amounts of nuclear proteins (10 μg) were incubated with [γ-^32P]ATP and separated by SDS-PAGE. The gel was dried and exposed to a X-ray film. b) Immunodetection of a PKCg homolog in nuclear and soluble extracts from non-acclimated (NA) and cold-acclimated (CA) plants. Equal amounts of proteins (10 μg) were separated by SDS-PAGE, blotted onto nitrocellulose membranes and probed with the anti-PKCg antibody. CA2 and CA7 indicate soluble extracts from 2 and 7 days cold-acclimated plants. c) PKC activity was measured in the nuclear extracts with the peptide MARCKS as the PKC-specific substrate and containing the indicated chemicals. […] Aliquotes of each reaction were separated by SDS-PAGE and visualized by autoradiography. PS, phosphatydylserine; DAG, diacylglycerol.
To determine the qualitative changes in the phosphorylation pattern following cold treatment, the nuclear extracts from both NA and CA plants (10 μg protein) were incubated for 5 to 40 min at 30° C. in binding buffer (Harter, K., supra) containing 1 mM MgCl2, 50 μCi [γ-^32P]ATP and 1 mM CaCl2. At specified intervals, reactions were stopped by adding one volume of 2× SDS-sample buffer and the proteins were separated by SDS-PAGE. Gels were dried, exposed to X-ray film and the signal intensity of individual bands was determined by quantitative densitometry. To accurately quantify the Ca^2+-dependent and Ca^2+-independent nuclear kinase activities, the incorporation of ^32P on histone III-S, casein or the PKC-specific substrate peptide MARCKS (Biomol; Blackshear, P. J. (1993) J. Biol. Chem. 268: 1501-1504) was determined as described elsewhere (Kitano, T., et al. (1986) Methods Enzymol. 124: 349-352). Histone III-S and casein are suitable substrates for phosphorylation assays, particularly when dealing with a crude mixture of uncharacterized protein kinases. […]

[2] = test system: WCS120 family of proteins; test: In vivo okadaic acid treatment of wheat shoots at low temperature, western blot densitometry of WCS120 proteins; parameters: species or system wheat (Triticum aestivum L. cv Fredrick); settings: 4° C.
Experimental: FIGS. 6. a) to c) Effect of in vivo okadaic acid treatment on the accumulation of the cold-inducible WCS120 family of proteins. Wheat seedlings were incubated at low temperature without or with different concentrations of okadaic acid (OA), and soluble proteins were extracted and separated by SDS-PAGE. a) Immunodetection of the WCS120 protein family in the soluble extracts. Following the treatment, the proteins were analyzed by western blot using the anti-WCS120 antibody. b) SDS-PAGE gel stained with Coomassie blue showing equal protein loading. c) Densitometric quantification of the individual protein bands of 50, 66 and 200 kDa of the immunoblot shown in a. The 50 kDa protein is encoded by Wcs120 gene. Values represent averages and standard deviations of the integrated intensity of the pixels for each protein band, excluding the background, from at least three independent experiments.
Wheat shoots were cut and immediately incubated in water or in the presence of the phosphatase inhibitor okadaic acid (OA) at 10, 100 or 1000 nM. The plants were left at room temperature for 4 hours to allow translocation of the inhibitor, then transferred to 4° C. for 24 hours, and the total soluble proteins were extracted as described (Limin, A. E., supra). […] The signal intensity for individual protein bands on the X-ray films was quantified with a Personal Densitometer SI (Molecular Dynamics) using the ImageQuaNT version 4.2 software. […]
To determine the role of protein phosphatases on the expression of Wcs120 gene, wheat seedlings were incubated at 4° C. in the presence of okadaic acid (a potent and specific inhibitor of protein phosphatases PP1 and PP2A) (Smith, R. D., et al. (1996) Annu. Rev. Plant. Physiol. Plant. Mol. Biol. 47:101-125). Soluble proteins were extracted and the accumulation of the WCS120 family of proteins was analyzed by quantitative densitometry of western blots. […]

[3] = 1 μM okadaic acid, densitometric analysis

O=C(O)CN(CCOCCOCCN(CC(=O)O)CC(=O)O)CC(=O)O [EGTA]
inhibition of the phosphorylation of MARCKS ([1]; 0.5 mM EGTA): only partial inhibition

C=C1[C@@H](O)[C@@H]2O[C@]3(CC[C@H](/C=C/[C@@H](C)[C@@H]4CC(C)=C[C@@]5(O[C@H](C[C@@](C)(O)C(=O)O)CC[C@H]5O)O4)O3)CC[C@H]2O[C@@H]1[C@@H](O)C[C@H](C)[C@H]1O[C@@]2(CCCCO2)CC[C@H]1C [okadaic acid]
increase of the 50 and 66 kDa proteins with respect to plants exposed to low temperature without inhibitor [2, 3]: 2.2 fold
increase of the 200 kDa protein with respect to plants exposed to low temperature without inhibitor [2, 3]: 9 fold
accumulation of the 50, 66 and 200 kDa WCS120 proteins at low temperature ([2]; several concentrations of OA (10, 100 or 1000 nM)): significantly stimulated

Calphostin C
inhibition of MARCKS phosphorylation (32P incorporation, scintillation counting) ([1]; 0.5 mM Calphostin C): complete inhibition
inhibition of MARCKS phosphorylation ([1]; Calphostin C at 0.1 µM): did not significantly inhibit
